Results as given in paper PMC8092108, “Mycophenolate suppresses inflammation by inhibiting prostaglandin synthases: a study of molecular and experimental drug repurposing” (PeerJ, 2021).
Read-outs that look alike come from different tables or passages of the source.

Tests used:
Format in all cases: biochemical
COX-1 = biological target: T1, COX-1 (Ovis aries, UniProt P05979); assay: COX inhibitor screening assay, COX-1
T1 construct: purchased
T1 sequence (P05979 25-600): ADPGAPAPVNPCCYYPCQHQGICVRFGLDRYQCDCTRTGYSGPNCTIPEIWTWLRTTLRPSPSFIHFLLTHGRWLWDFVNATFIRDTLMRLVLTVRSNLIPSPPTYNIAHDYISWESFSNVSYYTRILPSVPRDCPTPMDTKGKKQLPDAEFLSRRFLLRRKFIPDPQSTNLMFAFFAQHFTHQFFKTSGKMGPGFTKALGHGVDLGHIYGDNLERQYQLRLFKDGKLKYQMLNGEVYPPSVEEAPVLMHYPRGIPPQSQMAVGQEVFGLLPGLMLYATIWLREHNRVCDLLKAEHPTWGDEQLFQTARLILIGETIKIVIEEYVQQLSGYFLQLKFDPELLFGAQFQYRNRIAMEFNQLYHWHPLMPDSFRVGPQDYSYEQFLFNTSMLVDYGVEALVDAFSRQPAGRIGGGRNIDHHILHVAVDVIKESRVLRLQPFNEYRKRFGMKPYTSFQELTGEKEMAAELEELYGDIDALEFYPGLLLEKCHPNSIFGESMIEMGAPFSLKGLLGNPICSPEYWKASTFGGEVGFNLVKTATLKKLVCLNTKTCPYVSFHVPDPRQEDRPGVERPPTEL
Description: (§1) The inhibitory effects of the drugs MMF and MPA on COX-1 and COX-2 were measured using the COX inhibitor screening assay kit and LOX inhibitor screening kit. […] Briefly, the reaction buffer (Tris–HCl buffer, pH 8.0) containing 5 mM EDTA, 2 mM phenol, and 1 µM hematin was measured into test tubes. The test drugs were dissolved in dimethyl sulfoxide and added to the tubes to final concentrations of […]. COX-1 or COX-2 was added to the test tubes and preincubated for 10 min at 37 °C. Arachidonic acid was then added, and the tubes were incubated for 2 min at 37 °C. The enzyme immunoassay was used to measure the concentration of the product prostaglandin F2α (PGF2α). The estimated values were determined after comparison to the predetermined standard curve. The IC50 was determined after three different experiments. The selectivity index was calculated from Eq. (1):
(§2) (1) Selectivity index=IC50COX−1/IC50COX−2

COX-2 = biological target: T2, COX-2 (Homo sapiens, UniProt P35354); assay: COX inhibitor screening assay, COX-2
T2 construct: purchased
T2 sequence (P35354 18-604): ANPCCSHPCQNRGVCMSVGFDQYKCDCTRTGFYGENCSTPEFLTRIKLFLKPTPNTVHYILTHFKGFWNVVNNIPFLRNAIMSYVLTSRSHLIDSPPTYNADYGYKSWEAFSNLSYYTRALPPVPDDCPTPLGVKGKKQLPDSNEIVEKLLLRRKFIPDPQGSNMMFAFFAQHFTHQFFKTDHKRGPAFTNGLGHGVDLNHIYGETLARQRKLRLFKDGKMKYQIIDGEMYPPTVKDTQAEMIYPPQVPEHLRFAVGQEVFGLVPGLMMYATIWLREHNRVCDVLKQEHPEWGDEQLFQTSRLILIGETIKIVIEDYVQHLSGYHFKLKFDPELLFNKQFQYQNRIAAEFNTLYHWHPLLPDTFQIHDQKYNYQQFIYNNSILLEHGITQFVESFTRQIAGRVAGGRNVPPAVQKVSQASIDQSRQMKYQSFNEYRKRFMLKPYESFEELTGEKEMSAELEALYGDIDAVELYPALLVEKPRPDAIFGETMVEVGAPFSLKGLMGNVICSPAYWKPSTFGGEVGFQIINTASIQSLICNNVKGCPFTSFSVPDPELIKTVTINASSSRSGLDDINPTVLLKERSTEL
Description: as §1, §2

12-LOX = assay: LOX inhibitor screening kit
Description: The inhibitory effects of the drugs MMF and MPA on COX-1 and COX-2 were measured using the COX inhibitor screening assay kit and LOX inhibitor screening kit. The assay was performed according to the manufacturer’s directions and previously described methods ([Chowdhury et al., 2008]; [Lee et al., 2004]). Briefly, the reaction buffer (Tris–HCl buffer, pH 8.0) containing 5 mM EDTA, 2 mM phenol, and 1 µM hematin was measured into test tubes. The test drugs were dissolved in dimethyl sulfoxide and added to the tubes to final concentrations of […]. COX-1 or COX-2 was added to the test tubes and preincubated for 10 min at 37 °C. Arachidonic acid was then added, and the tubes were incubated for 2 min at 37 °C. The enzyme immunoassay was used to measure the concentration of the product prostaglandin F2α (PGF2α). The estimated values were determined after comparison to the predetermined standard curve. The IC50 was determined after three different experiments. The selectivity index was calculated from Eq. (1): […]

## COc1c(C)c2c(c(O)c1C/C=C(\C)CCC(=O)OCCN1CCOCC1)C(=O)OC2 [Mycophenolate mofetil]
COX-1
  IC50: 5.53 µM
COX-2
  IC50: 0.19 µM
12-LOX; printed as 5-LOX in abstract and b38, read-out: IC50 5-LOX
  IC50: 4.47 µM
12-LOX; read-out: IC50 12-LOX
  IC50: 4.47 µM
